# In patent US5095013A, “2-(2-vinylpyrrolidinylthio)carbapenem derivatives” (Banyu Pharmaceutical Co., Ltd., priority 1989, dated 1992):
# Like-named read-outs stand apart in the source and are kept apart here.
# Tests used:
# [1] = tested on: E. cloacae Nek39; test: in vitro antibacterial activity, agar plate dilution method (MIC); format: cell-based; conditions: Enterobacter cloacae, read-out: Minimum inhibitory concentration (MIC)
# Protocol: (§1) One platinum loopful of each test microorganism incubated overnight in Mueller Hinton broth, was inoculated to Mueller Hinton agar (inoculum size: 10^6 CFU/ml). Such culture media contained antibacterial agents in various concentrations. After incubation at 37° C. for 16 hours, the minimum inhibitory concentrations (MIC: μg/ml) were measured.
# [2] = tested on: Ps. aeruginosa MB5000; test: as above; format: cell-based; conditions: Pseudomonas aeruginosa, read-out: Minimum inhibitory concentration (MIC)
# Protocol: as §1
# [3] = tested on: S. aureus MB4970; test: as above; format: cell-based; conditions: Staphylococcus aureus, read-out: Minimum inhibitory concentration (MIC)
# Protocol: as §1
# [4] = tested on: renal dehydropeptidase I (DHP-I); format: in vitro ADME
# Text: The DHP-I susceptivity was quantitatively analyzed by the method by Kropp et al., Antimicrob., Agents Chemother., vol. 22, p. 62-70 (1982), whereby the smaller the numerical value representing the ratio to imipenem (=1.0), the higher the stability.
# [5] = tested on: gram positive bacteria and gram negative bacteria; conditions: cited prior art; cited from earlier work
# [6] = tested on: DHP-I; conditions: cited from earlier work
# [7] = cited from earlier work
# [8] = due to the decomposition products; cited from earlier work
# [9] = tested on: β-lactamase; conditions: cited from earlier work
# [10] = tested on: highly methicillin resistant Staphylococcus aureus resistant to imipenem; conditions: cited from earlier work
# [11] = tested on: imipenem resistant Pseudomonas aeruginosa; conditions: cited from earlier work
# [12] = tested on: methicillin resistant Staphylococcus aureus; conditions: prior art compounds; cited from earlier work
# [13] = tested on: DHP-I; conditions: cited from earlier work; remark: listed apart in the source
# [14] = in vivo; cited from earlier work
structure (smiles),measurement,setting,value
C[C@@H](O)[C@H]1C(=O)N2C(C(=O)[O-])=C(S[C@@H]3CN[C@H](/C=C/C(N)=O)C3)[C@H](C)[C@H]12.[K+],MIC,"[1]; NEK39, 16 h",0.025 µg/mL
same,MIC,"[2]; MB5000, 16 h",0.39 µg/mL
same,MIC,"[3]; MB4970, 16 h",0.025 µg/mL
same,DHP-I susceptivity,[4],0.2
"C[C@@H](O)[C@H]1C(=O)N2C(C(=O)O)=C(S[C@@H]3CN[C@H](/C=C4\CCNC4=O)C3)[C@H](C)[C@H]12 [Example 12, (1R,5S,6S)-6-[(R)-1-Hydroxyethyl]-1-methyl-2-[(2S,4S)-2[(E)-(2-oxopyrrolidin-3-ylidene)methyl]pyrrolidin-4-ylthio]-1-carbapen-2-em-3-carboxylic acid]",MIC,"[1]; E. cloacae Nek39, Mueller Hinton agar, inoculum 10^6 CFU/ml, 37° C., 16 hours",0.025 µg/mL
same,MIC,"[2]; Ps. aeruginosa MB5000, Mueller Hinton agar, inoculum 10^6 CFU/ml, 37° C., 16 hours",0.39 µg/mL
same,MIC,"[3]; S. aureus MB4970, Mueller Hinton agar, inoculum 10^6 CFU/ml, 37° C., 16 hours",0.025 µg/mL
same,DHP-I susceptivity,[4],0.04
"C[C@@H](O)[C@H]1C(=O)N2C(C(=O)O)=C(SCCN=CN)C[C@H]12 [Imipenem, imipenem]",DHP-I susceptivity,[4],1.0
same,antibacterial activities (in words),[5],antibacterial activities of an equal or higher level than thienamycin against various types of bacteria
same,decomposition by DHP-I in the human kidney,[6],likely to be decomposed by DHP-I in the human kidney
same,stability in the solid form or in an aqueous solution,[7]; compared with thienamycin,remarkably improved over thienamycin
same,toxicity against the kidney,[8],presents toxicity against the kidney due to the decomposition products
same,β-lactamase resistance,[9],has β-lactamase resistance
same,treating effect (in words),[10],does not show adequate treating effects
same,treating effect (in words),[11],does not show adequate treating effects
C[C@@H](O)[C@H]1C(=O)N2C(C(=O)O)=C(S[C@@H]3CN[C@H](C(=O)N(C)C)C3)[C@H](C)[C@H]12 [meropenem],antibacterial activity against highly methicillin resistant Staphylococcus aureus (in words),[12],not adequate
same,stability against DHP-I (in words),[13]; prior art compounds,substantially improved
C[C@@H](O)[C@H]1C(=O)N2C(C(=O)O)=C(SCCN)C[C@H]12 [thienamycin],antibacterial activities (in words),[5],strong antibacterial activities over a wide range against gram positive bacteria and gram negative bacteria
same,decomposition by DHP-I (in words),"[13]; renal dehydropeptidase I, in vivo",likely to be decomposed by a certain enzyme in vivo such as renal dehydropeptidase I
same,chemical stability (in words),[7]; cited prior art,chemically unstable
same,recovery rate in the urine,[14],low
